pEC50: −log10 of the molar value.
Key:
[1] = test system: C. parvum (UGA1 Nluc expressing strain in HCT-8 cells); test: microbe, parasite or virus in culture; assay type: cell-based, Cryptosporidium parvum; conditions: for Crypto (10 uM) Mean % inhibition: initial Pathogen Box screen, single concentration 10 µM, inhibition compared to DMSO wells
Method in brief: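 HCT-8 monolayers grown 48 h to 90–100% confluence, treated with compound at 10 μM or serial dilutions, then infected with bleach-treated UGA1 Nluc C. parvum oocysts.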

[2] = test system: G. lamblia trophozoites (luciferase expressing, WBC6); test: microbe, parasite or virus in culture; assay type: cell-based, Giardia lamblia; conditions: initial Pathogen Box screen, single concentration 16 µM, inhibition compared to DMSO wells
Method in brief: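 Luciferase-expressing WBC6 trophozoites plated at 250,000 cells/mL, compounds added 1:1, incubated anaerobically (GasPak bags) at 37 °C for 24 h; viability read by bioluminescence, with duplicate plates counted on a MOXI Z cell counter. Metronidazole control serially diluted 1:2 from 40 μM.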

Row | Structure (SMILES) | Crypto (10 uM) Mean % inhibition [1] | Giardia (16 uM) Mean % inhibition [2] | C. parvum cell growth inhibition in the initial screen ([1]; 10 μM, 48 hours) [%] | pEC50 ([1]; Nluc C. parvum in HCT-8 cells, 48 hours, read-out: C. parvum EC50)
1 | CC1CCCN(C(=O)C(C)Nc2cc(Cl)ccc2N2CCOCC2)C1 (stereo not shown) [MMV020388] | X* (Mean or standard deviation are negative but not significantly different from the control to be a growth promoter) | 62% | – | –
2 | COc1ccc(-c2cnc3ccc(NCc4ccc(S(N)(=O)=O)cc4)nn23)cn1 [MMV010545] | X* (Mean or standard deviation are negative but not significantly different from the control to be a growth promoter) | X* (Mean or standard deviation are negative but not significantly different from the control to be a growth promoter) | – | –
3 | O=C(C1CCN(c2nnnn2-c2ccccc2)CC1)N1CCc2ccccc2C1 [MMV009135] | 56% | X* (Mean or standard deviation are negative but not significantly different from the control to be a growth promoter) | – | –
4 | Clc1ccc(-n2cc(COc3ccnc4ccccc34)nn2)cc1 [MMV675994] | 94% | 15% | – | –
5 | Cc1nn(C(=O)Nc2cccc(C(F)(F)F)c2)c(C)c1Sc1ncccn1 [MMV688552] | X* (Mean or standard deviation are negative but not significantly different from the control to be a growth promoter) | X* (Mean or standard deviation are negative but not significantly different from the control to be a growth promoter) | – | –
6 | c1csc(-c2cnc3sc(NCC4CCOCC4)nn23)c1 [MMV010764] | X* (Mean or standard deviation are negative but not significantly different from the control to be a growth promoter) | X* (Mean or standard deviation are negative but not significantly different from the control to be a growth promoter) | – | –
7 | COc1ccc2nc(C)cc(OCC(=O)NCc3ccccc3)c2c1 [MMV687189] | 23% | 16% | – | –
8 | FC(F)(F)c1nnc2ccc(Cl)nn12 [MMV069458] | 65% | X* (Mean or standard deviation are negative but not significantly different from the control to be a growth promoter) | – | –
9 | O=S(=O)(c1ccc(Cl)cc1)N1CCN(C(=S)NCc2ccco2)CC1 [MMV000858] | 41% | 3% | – | –
10 | Nc1ncnc2c1c(-c1cnc3ccccc3c1)nn2CC1CCNCC1 [MMV688411] | X* (Mean or standard deviation are negative but not significantly different from the control to be a growth promoter) | X* (Mean or standard deviation are negative but not significantly different from the control to be a growth promoter) | – | –
11 | Cc1[nH]c2ccccc2c1C(c1cccs1)N1CCN(C)CC1 (stereo not shown) [MMV688768] | 66% | 9% | – | –
12 | CN1CCN(S(=O)(=O)c2ccc(-c3ccc4c(Nc5ccc6n[nH]nc6c5)ccnc4c3)cc2)CC1 [MMV687246] | X* (Mean or standard deviation are negative but not significantly different from the control to be a growth promoter) | 30% | – | –
13 | CN1CCC(c2cc(-c3ccncc3)c(-c3ccc(F)cc3)[nH]2)CC1 [MMV688703] | 84% | 18% | – | –
14 | COc1cc(NC(=O)Cc2nn(C)c(=O)c3ccccc23)ccc1Cl [MMV676053] | 84% | X* (Mean or standard deviation are negative but not significantly different from the control to be a growth promoter) | – | –
15 | Cc1ccc(S(=O)(=O)Nc2ccc(CN3CCN(C(=O)c4cccc(C#N)c4)CC3)cc2)cc1 [MMV689028] | 58% | 56% | – | –
16 | COc1ccc(CN2CCOc3ccc(C(C)(O)CN(C)C)cc3C2)cc1C (stereo not shown) [MMV008439] | 68% | 35% | – | –

Row | Structure (SMILES) | Crypto (10 uM) Mean % inhibition [1] | Giardia (16 uM) Mean % inhibition [2] | C. parvum cell growth inhibition in the initial screen ([1]; 10 μM, 48 hours) [%] | pEC50 ([1]; Nluc C. parvum in HCT-8 cells, 48 hours, read-out: C. parvum EC50)
17 | COc1ccc(-c2cnc3cnc(-c4cccc(OC(C)C)c4)cn23)cc1 [MMV688270] | X* (Mean or standard deviation are negative but not significantly different from the control to be a growth promoter) | 10% | – | –
18 | COc1ccc(Nc2ccccc2NC(=O)c2ccc(=O)[nH]c2)cc1 [MMV676554] | 61% | 21% | – | –
19 | CC1(O)CC(c2nc(-c3ccc4ccc(-c5ccccc5)nc4c3)c3c(N)nccn23)C1 (stereo not shown) [MMV676605] | X* (Mean or standard deviation are negative but not significantly different from the control to be a growth promoter) | 15% | – | –
20 | Cc1ccc2[nH]c(C3CCCNC3)c(-c3ccncc3)c2c1 (stereo not shown) [MMV024311] | 56% | 22% | – | –
21 | Cc1ccc2c(c1C)NC(=O)C21NN=C(c2ccccc2)S1 (stereo not shown) [MMV019189] | 95% | X* (Mean or standard deviation are negative but not significantly different from the control to be a growth promoter) | ≥ 95 | 5.60
22 | Cc1nnc(NCc2cccc(Cl)c2)c2ccccc12 [MMV676555] | X* (Mean or standard deviation are negative but not significantly different from the control to be a growth promoter) | X* (Mean or standard deviation are negative but not significantly different from the control to be a growth promoter) | – | –
23 | CCCCOC(=O)Nc1cc2[nH]c(C3CCCCC3)nc2cc1N1CCCC1 [MMV687730] | 61% | 24% | – | –
24 | CC(C)(C)c1cc(C(=O)Nc2cccnc2)cc(C(=O)Nc2cccnc2)c1 [MMV020982] | 67% | 10% | – | –
25 | Cn1ccnc1CNCCS(=O)(=O)c1cccc(Nc2ccc(-c3cccc(F)c3)cn2)c1 [MMV688466] | 43% | 28% | – | –
26 | COc1ccc(Oc2ccc([C@@H](C)N(C)c3ncc4c(N)nc(N)nc4n3)cc2)cc1 [MMV690102] | 77% | 62% | – | –
27 | O=C(NCCN1CCCC1)c1cc(NCCCCN2CCC(F)(F)CC2)nc2ccc(Cl)cc12 [MMV667494] | X* (Mean or standard deviation are negative but not significantly different from the control to be a growth promoter) | 82% | – | –
28 | O=C(NCCc1ccn(-c2ccccc2)n1)C1CCCCC1 [MMV688795] | X* (Mean or standard deviation are negative but not significantly different from the control to be a growth promoter) | 29% | – | –
29 | CCc1ccc(C(NCc2nc(N)nc(N(C)C)n2)C(C)C)cc1 (stereo not shown) [MMV1019989] | X* (Mean or standard deviation are negative but not significantly different from the control to be a growth promoter) | 4.4% | – | –
30 | CC(C)(C)OC(=O)N1CCN(c2cc(-c3ccc(Oc4ccccc4)cc3)n[nH]2)CC1 [MMV676057] | X* (Mean or standard deviation are negative but not significantly different from the control to be a growth promoter) | 52% | – | –
31 | CC(C)(C)C(=O)N(CCCCCCN1C[C@H](O)[C@@H](O)[C@H](O)[C@H]1CO)C1CCCCCC1 [MMV688543] | X* (Mean or standard deviation are negative but not significantly different from the control to be a growth promoter) | X* (Mean or standard deviation are negative but not significantly different from the control to be a growth promoter) | – | –

From PMC6095626, “Screening of the Pathogen Box for inhibitors with dual efficacy against Giardia lamblia and Cryptosporidium parvum” (PLoS Neglected Tropical Diseases, 2018)
